Where “and” joins values, the source holds several entries; their conditions need not be identical. Equal values may be shown once.
Legend:
Type in all cases: binding, calf
AP-DNA [1] = assay: FARP AP-site assay: screening of MX-like compounds in competition with FARP
Description: (§1) 100 μL of 5 μM FARP in phosphate buffer (10 mM, pH 7.0) was added to 200 μL phosphate buffer (10 mM, pH 7.0) containing 10 μg of DNA extracted from cells, individual AP-DNA standard (10, 20, 40, 80, 160, 320, and 640 nM AP), and blank AP-DNA control, respectively. After vortexing, the reaction was allowed to proceed at room temperature for 15 min. At the end of the reaction 200 μL ammonium acetate (7.5M) and 1000 μL ice-cold ethanol (100%) were added. The solution was mixed gently by inverting the tube before keeping it at −20° C. for 30 min. Each tube was centrifuged at 4° C. and 12,000 g for 10 min. The supernatant was poured out carefully so that no loss of FARP-AP-DNA took place. 1200 μL of ice-cold ethanol (70%) was added to each tube to remove the free FARP by centrifugation at 4° C. and 12,000 g for 10 min. This washing step with 70% ice-cold ethanol was repeated two more times. After discarding the supernatant, the FARP-AP-DNA precipitate in the tube was dried at room temperature for 30 min. in a venting hood. The FARP-AP-DNA precipitate was hydrated and resuspended in 200 μL of phosphate buffer (10 mM, pH 9.0) at room temperature for 1 hr. The fluorescence intensity of the resultant FARP-AP-DNA solution was measured by the FluoroMax-2 spectrofluorometer. A calibration curve could be constructed by plotting the fluorescence intensity versus the concentration of AP sites.
One important application of the FARP AP-site assay developed is to screen MX-like compounds for their reactivity to AP site based on known chemical structures. In this work, four compounds with aminooxy or hydrazone group (i.e., MXL1O1, MXLIO2, MXLI 03, and MXL 104) together with MX were tested. The detail experiment included mixing equal concentration and volume of each individual test compound with FARP (50 μM in 100 μL of 10 mM phosphate buffer at pH 7.0) before reacting with 200 µL of 100 nM AP-DNA. The remaining experimental procedures were the same as described in the Experimental section. The data of fluorescence intensity reduced by MX and MX-like compounds were given in Table XI and the fluorescence intensity of the test compounds were compared in FIG. 19.

AP-DNA [2] = assay: Competitive reactions between FARP and MX with AP-DNA; conditions: for Fluorescence Intensity/10^4: 125 nM AP-DNA
Description: as §1
Since aminooxy and hydrazone nucleophiles can react with aldehyde group of AP site and form condensation product, it is desirable to know when MX and FARP compete with AP-DNA, which compound has greater reactivity toward AP-DNA. The finding of this experiment will lay the foundation of a screening assay for MX-like compounds.
In the study, the amount of AP-DNA used were 125 nM in 200 μL of 10 mM phosphate buffer at pH 7.0 and the ratios of [FARP]/[MX] were as follows: 50 μM FARP/0 μM, 50.0 μM/5 μM, 50.0 μM/12.5 μM, 50.0 μM/16.7 μM, 50.0 μM/25.0 μM 50.0 μM/22.7 μM, 50.0 μM/25 μM, 50.0 μM/50.0 μM, 50.0 μM/100.0 μM, 50.0 μM/200.0 μM, 50.0 μM/500.0 μM in 100 μL of 10 mM phosphate buffer at pH 7.0. Because MX and FARP were competing for a limited amount of AP-DNA, and only FARP-AP-DNA was fluorescent, the reduced fluorescence intensity reflected the amount of MX binding to the AP sites. […] This is probably due to the molecular size of MX, which allows it to diffuse to faster to the AP-DNA than FARP molecule in aqueous solution.

AP-DNA [3] = assay: Reversibility study of the condensation reaction between FARP / MX and AP-DNA; conditions: for Fluorescence Intensity, FARP Reaction Followed MX Reaction: FARP-AP-DNA incubated with 50 μM MX; for Fluorescence Intensity, MX Replacement Followed by FARP Replacement: MX-AP-DNA incubated with 50 μM FARP
Description: It was known that the aldehyde group of an AP site could easily condense with aminooxy or hydrazone nucleophiles. However, the reversibility of the reaction was not clear, especially in the presence of another competing nucleophile. To clarify the above, two experiments were designed and carried out as follows: (a) FARP (50 μM in 100 μL of 10 mM phosphate buffer at pH 7.0) reacted with AP-DNA (125 nM in 200 μL of 10 mM phosphate buffer at pH 7.0) for 1 hr, after washing the condensation product (FARP-AP-DNA) incubated with MX (50 μM in 100 μL of 10 mM phosphate buffer at pH 7.0) for various time periods; and (b) MX (50 μM in 100 μL of 10 mM phosphate buffer at pH 7.0) reacted with AP-DNA (125 nM, 200 μL) for 1 hr, after washing the condensation product (MX-AP-DNA) incubated with FARP (50 μM in 100 μL of 10 mM phosphate buffer at pH 7.0) for various time periods.

AP-DNA [4] = assay: Competitive reactions between FARP and MX with AP-DNA; conditions: [FARP]/[MX] 50.0 μM/20.0 μM, 125 nM AP-DNA
[5] = test compound mixed with FARP at equal concentration and volume (50 μM in 100 μL, pH 7.0), 100 nM AP-DNA

SMILES: CON [MX, methoxyamine]
- Normalized Fluorescence Intensity % (AP-DNA [1]; relative to FARP alone = 100, equal concentration of test compound and FARP, 100 nM AP-DNA): 37.3%
- reactivity toward AP-DNA compared with FARP (AP-DNA [1]; result in words): higher reactivity than FARP
- Fluorescence Intensity Individual Measurement (AP-DNA [1]; [5]): 6543.0 and 6137.0
- Fluorescence Intensity Mean (AP-DNA [1]; [5]): 6340.0
- Fluorescence Intensity/10^4 (AP-DNA [2]; [FARP]/[MX] 50.0 μM/5.0 μM): 8.9453
- Fluorescence Intensity/10^4 (AP-DNA [2]; [FARP]/[MX] 50.0 μM/12.5 μM): 8.3567
- Fluorescence Intensity/10^4 (AP-DNA [2]; [FARP]/[MX] 50.0 μM/16.7 μM): 7.6453
- Fluorescence Intensity/10^4 (AP-DNA [2]; [FARP]/[MX] 50.0 μM/22.7 μM): 3.8976
- Fluorescence Intensity/10^4 (AP-DNA [2]; [FARP]/[MX] 50.0 μM/25.0 μM): 3.2452
- Fluorescence Intensity/10^4 (AP-DNA [2]; [FARP]/[MX] 50.0 μM/50.0 μM): 2.587
- Fluorescence Intensity/10^4 (AP-DNA [2]; [FARP]/[MX] 50.0 μM/100.0 μM): 2.348
- Fluorescence Intensity/10^4 (AP-DNA [2]; [FARP]/[MX] 50.0 μM/200.0 μM): 2.2876
- Fluorescence Intensity/10^4 (AP-DNA [2]; [FARP]/[MX] 50.0 μM/500.0 μM): 2.0896
- affinity toward AP-DNA compared with FARP (AP-DNA [2]; result in words): greater affinity toward APDNA than that of FARP
- Fluorescence Intensity, FARP Reaction Followed MX Reaction (AP-DNA [3]; replacement time 10 min): 11,003
- Fluorescence Intensity, FARP Reaction Followed MX Reaction (AP-DNA [3]; replacement time 20 min): 11,289
- Fluorescence Intensity, FARP Reaction Followed MX Reaction (AP-DNA [3]; replacement time 30 min): 10,759
- Fluorescence Intensity, FARP Reaction Followed MX Reaction (AP-DNA [3]; replacement time 40 min): 11,193
- Fluorescence Intensity, FARP Reaction Followed MX Reaction (AP-DNA [3]; replacement time 50 min): 11,226
- Fluorescence Intensity, FARP Reaction Followed MX Reaction (AP-DNA [3]; replacement time 60 min): 11,139
- Fluorescence Intensity, FARP Reaction Followed MX Reaction (AP-DNA [3]; replacement time 90 min): 11,112
- Fluorescence Intensity, FARP Reaction Followed MX Reaction (AP-DNA [3]; replacement time 120 min): 11,145
- Fluorescence Intensity, MX Replacement Followed by FARP Replacement (AP-DNA [3]; replacement time 10 min): 3,366
- Fluorescence Intensity, MX Replacement Followed by FARP Replacement (AP-DNA [3]; replacement time 20 min): 3,225
- Fluorescence Intensity, MX Replacement Followed by FARP Replacement (AP-DNA [3]; replacement time 30 min): 3,557
- Fluorescence Intensity, MX Replacement Followed by FARP Replacement (AP-DNA [3]; replacement time 40 min): 3,410
- Fluorescence Intensity, MX Replacement Followed by FARP Replacement (AP-DNA [3]; replacement time 50 min): 3,321
- Fluorescence Intensity, MX Replacement Followed by FARP Replacement (AP-DNA [3]; replacement time 60 min): 3,192
- Fluorescence Intensity, MX Replacement Followed by FARP Replacement (AP-DNA [3]; replacement time 90 min): 3,202
- Fluorescence Intensity, MX Replacement Followed by FARP Replacement (AP-DNA [3]; replacement time 120 min): 3,081
- reversibility of the condensation reaction with aldehyde group of AP-DNA (AP-DNA [3]; result in words, under the assay conditions): irreversible
- Fluorescence Intensity/10^4 (AP-DNA [4]): 5.6423

Reference: US20090298077A1, “ASSAY FOR MEASUREMENT OF APURINIC/APYRIMIDINIC (AP) SITES AND FOR SCREENING AP-SITE REACTIVE COMPOUNDS” (priority 2006, published 2009)
